Results reported in patent US20130023540A1, “TREATMENT OF MASTITIS” (BAYER HEALTHCARE AG, priority 2004, published 2013).

Experiment: investigation of the substances having an antibacterial effect in bovine milk following parenteral administration of enrofloxacin
Assay type: in vivo

Compound	antibacterial activity in bovine milk (enrichment of active compounds as compared with the serum concentration)	proportion in the milk [%]
CCN1CCN(c2cc3c(cc2F)c(=O)c(C(=O)O)cn3C2CC2)CC1 [enrofloxacin, 1-cyclopropyl-7-(4-ethyl-1-piperazinyl)-6-fluoro-1,4-dihydro-4-oxo-3-quinolone-carboxylic acid]	high antibacterial activity	~10
O=C(O)c1cn(C2CC2)c2cc(N3CCNCC3)c(F)cc2c1=O [ciprofloxacin, 1-cyclopropyl-7-(1-piperazinyl)-6-fluoro-1,4-dihydro-4-oxo-3-quinolonecarboxylic acid]	–	~90
